{
  "source": "patent US11957696B2",
  "about": "(Propella Therapeutics, Inc., priority 2021, dated 2024)",
  "key": {"[1]": {"target": "T1, CYP17 (Rattus norvegicus, UniProt P11715)", "T1 construct": "endogenous in cells; host or cells: live CD [Crl:CD(SD)] rats (in vivo)", "T1 sequence (P11715 1-507)": "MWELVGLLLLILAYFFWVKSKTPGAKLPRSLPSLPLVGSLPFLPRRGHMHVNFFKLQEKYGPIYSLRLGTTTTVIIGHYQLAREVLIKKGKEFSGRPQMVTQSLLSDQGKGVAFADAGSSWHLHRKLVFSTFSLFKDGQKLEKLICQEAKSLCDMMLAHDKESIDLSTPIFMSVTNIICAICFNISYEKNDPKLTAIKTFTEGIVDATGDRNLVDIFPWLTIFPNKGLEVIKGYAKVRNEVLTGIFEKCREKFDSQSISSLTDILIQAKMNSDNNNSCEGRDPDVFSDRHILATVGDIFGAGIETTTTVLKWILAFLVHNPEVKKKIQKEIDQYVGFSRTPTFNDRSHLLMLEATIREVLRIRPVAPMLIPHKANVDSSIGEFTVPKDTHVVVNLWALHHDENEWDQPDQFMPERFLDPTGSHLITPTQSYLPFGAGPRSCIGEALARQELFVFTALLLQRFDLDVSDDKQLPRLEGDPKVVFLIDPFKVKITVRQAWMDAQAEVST", "assay": "Serum steroid levels after single IV or IM injection in tissue uptake study", "type": "in vivo, strain CD [Crl:CD(SD)]", "details": "rats", "from_the_text": "Vehicle for IM injection: Corn oil with 10% benzyl alcohol (w/v) and 20% benzyl benzoate (w/v). The study followed the protocols described below.\nFor serum steroid analysis, blood samples were collected from animals in each study group at predose and at terminal necropsy according to the following protocol. Animals were designated for 72 hr and 168 hr necropsy, the animals will be fasted overnight before scheduled blood collections. Plasma samples will be used for ACTH level analysis. Serum samples will be used for LH level analysis and steroid level analysis. Plasma samples will also be collected at various time points and be analyzed for abiraterone decanoate and abiraterone. Representative samples of tissues will be collected and snap frozen and analyzed. Lung, Liver, Adrenal glands, Prostate, Testes (Sample 1 and 2) and lymph nodes tissues will be collected. Lymph node(s) draining administration site(s): Inguinal (Groups 1-4) and Iliac (Groups 1 and 3 only). Lymph node, mandibular and Lymph node mesenteric tissues will also be collected."}, "[2]": {"assay": "PK of single IM abiraterone decanoate in chemically castrated monkeys (abiraterone plasma)", "type": "in vivo, cynomolgus monkeys", "details": "single IM 10 mg/kg"}, "[3]": {"system": "LH", "assay": "LH analysis (serum) in 13-week study", "type": "in vivo, cynomolgus monkeys", "design": "LH: unit not given here", "protocol": "Sample Collection for LH Analysis (Serum): Blood samples (approximately 2.5 mL) were collected from all animals via the femoral vein for determination of the serum concentrations of LH. The animals were fasted prior to blood collection except one deviation."}, "[4]": {"assay": "Toxicokinetics of abiraterone decanoate and abiraterone in 13-week study", "type": "in vivo, cynomolgus monkeys", "details": "for AUC(0-t) / Cmax: male, cynomolgus monkey, in vivo, im; for AUC(0-t): Abiraterone Decanoate plasma AUC0-[…] (mean); for Cmax: Abiraterone Decanoate plasma Cmax (mean)", "protocol": "Toxicokinetic parameters were obtained for each animal on Days 1, 29, and 71. […] A single 144-hour sample was collected outside of the allowable window for timed collections from one Animal on Day 29 and the actual time for this time point was used in the toxicokinetic data analysis. Nominal time was used for graphic representation and concentration table generation. For each animal, the following toxicokinetic parameters were determined: maximum observed plasma concentration (Cmax), time of maximum observed plasma concentration (Tmax), and area under the plasma concentration-time curve (AUC)."}, "[5]": {"details": "cynomolgus monkey, in vivo", "protocol": "Test system/animals: gonadally intact, sexually mature, male cynomolgus monkeys. Administration of Test Materials: The vehicle control and test article were administered once every 2 weeks for 13 weeks (Days 1, 15, 29, 43, 57, and 71) during the study via intramuscular injection. […] The dose levels were 20, 60, or 200 mg/kg/dose and administered at a dose volume of 0.10, 0.15, and 0.25 mL/kg/site, respectively. The control group received the vehicle control in the same manner as the treated groups at a dose volume of 0.25 mL/kg/site.\nThe vehicle control and test article formulations were administered via bolus intramuscular injection into the epaxial muscles of the lumbar back. Animals at 0 and 200 mg/kg/dose were dosed in 4 dose sites, animals at 20 mg/kg/dose were dosed in 1 dose site, and animals at 60 mg/kg/dose were dosed in 2 dose sites. The needle (23-gauge, ⅝-inch) was inserted perpendicular to the skin surface. The location of the injection site was documented for each dose. In addition, each injection site was marked with a single large dot at the exact site of needle insertion, for purposes of erythema and swelling evaluation. Each injection site was remarked at least once weekly and prior to necropsy.\nIndividual doses were based on the most recent body weights. Formulations were warmed at 35° C. (±5° C.) for at least 1 hour prior to dosing.\nThe following parameters and endpoints were evaluated in this study: mortality, clinical signs, body weights, body weight gains, ophthalmology and electrocardiographic examinations, clinical pathology parameters (hematology, coagulation, clinical chemistry, and urinalysis), LH and ACTH analyses, toxicokinetic parameters, gross necropsy findings, organ weights, and histopathologic examinations. Statistical analyses were performed using Group Pair-wise Comparisons (general ANOVA)."}, "[6]": {"details": "single intramuscular dose (90 mg/kg)"}},
  "note": "Read-outs that look alike come from different tables or passages of the source.",
  "data": [
    {"smiles": "CCCCCCCCCC(=O)O[C@H]1CC[C@@]2(C)C(=CC[C@@H]3[C@@H]2CC[C@]2(C)C(c4cccnc4)=CC[C@@H]32)C1", "note": "[Abiraterone Decanoate, abiraterone decanoate]", "values": [
      {"measurement": "circulating androgen levels (androstenedione and testosterone)", "setting": "[1]; [6]", "value": "potent reductions"},
      {"measurement": "levels of progesterone and corticosterone", "setting": "[1]; [6]", "value": "increased"},
      {"measurement": "sustained reduction of testosterone", "setting": "[1]; single intramuscular dose, last time point tested", "value": "≥ 168", "unit": "h"},
      {"measurement": "abiraterone in the plasma at Day 70", "setting": "[2]", "value": "measurable"},
      {"measurement": "LH", "setting": "[3]; 20 mg/kg, N 4, Day 8", "value": 1.67},
      {"measurement": "LH", "setting": "[3]; 20 mg/kg, N 4, Day 15", "value": 1.67},
      {"measurement": "LH", "setting": "[3]; 20 mg/kg, N 4, Day 78", "value": 5.67},
      {"measurement": "LH", "setting": "[3]; 20 mg/kg, N 4, Day 85", "value": 3.12},
      {"measurement": "LH", "setting": "[3]; 60 mg/kg, N 4, Day 8", "value": 2.78},
      {"measurement": "LH", "setting": "[3]; 60 mg/kg, N 4, Day 15", "value": 2.73},
      {"measurement": "LH", "setting": "[3]; 60 mg/kg, N 4, Day 78", "value": 7.12},
      {"measurement": "LH", "setting": "[3]; 60 mg/kg, N 4, Day 85", "value": 7.07},
      {"measurement": "LH", "setting": "[3]; 200 mg/kg, N 6, Day 8", "value": 1.98},
      {"measurement": "LH", "setting": "[3]; 200 mg/kg, N 6, Day 15", "value": 2.33},
      {"measurement": "LH", "setting": "[3]; 200 mg/kg, N 6, Day 78", "value": 5.04},
      {"measurement": "LH", "setting": "[3]; 200 mg/kg, N 6, Day 85", "value": 5.27},
      {"measurement": "LH concentrations", "setting": "[3]; following abiraterone decanoate administration", "value": "no clear effects"},
      {"measurement": "plasma exposures to abiraterone (Cmax and AUC) compared with oral abiraterone acetate toxicology studies", "setting": "[4]; IM administration, cynomolgus monkeys", "value": "lower than levels achieved in toxicology studies with abiraterone acetate"},
      {"measurement": "AUC(0-t)", "setting": "[4]; 20 mg/kg", "value": 888, "unit": "ng·h/mL"},
      {"measurement": "AUC(0-t)", "setting": "[4]; 60 mg/kg", "value": 2040, "unit": "ng·h/mL"},
      {"measurement": "AUC(0-t)", "setting": "[4]; 200 mg/kg", "value": 13100, "unit": "ng·h/mL"},
      {"measurement": "Cmax", "setting": "[4]; 200 mg/kg", "value": 66.6, "unit": "ng/mL"},
      {"measurement": "Cmax", "setting": "[4]; cynomolgus, 20 mg/kg", "value": 6.27, "unit": "ng/mL"},
      {"measurement": "AUC(0-t)", "setting": "[4]; cynomolgus, 60 mg/kg", "value": 2190, "unit": "ng·h/mL"},
      {"measurement": "Cmax", "setting": "[4]; cynomolgus, 60 mg/kg", "value": 15.8, "unit": "ng/mL"},
      {"measurement": "AUC(0-t)", "setting": "[4]; cynomolgus, 200 mg/kg", "value": 12400, "unit": "ng·h/mL"},
      {"measurement": "Cmax", "setting": "[4]; cynomolgus, 200 mg/kg", "value": 71.3, "unit": "ng/mL"},
      {"measurement": "adrenal gland changes", "setting": "[5]", "value": "minimal to moderate cortical hypertrophy"},
      {"measurement": "clinical observations", "setting": "[5]", "value": "swelling and/or nodules at the injection sites"},
      {"measurement": "findings in the lung", "setting": "[5]", "value": "minimal to moderate granulomatous inflammation"},
      {"measurement": "ophthalmology findings, qualitative or quantitative ECG parameters", "setting": "[5]", "value": "no effect"},
      {"measurement": "test article-related changes in the epididymis", "setting": "[5]", "value": "mild to severe reduced luminal sperm and/or minimal to mild increased germ cell debris"},
      {"measurement": "test article-related changes in the prostate gland", "setting": "[5]", "value": "mild to moderate prostate gland atrophy"},
      {"measurement": "test article-related changes in the seminal vesicle", "setting": "[5]", "value": "minimal to mild seminal vesicle atrophy"},
      {"measurement": "test article-related changes in the testes", "setting": "[5]", "value": "minimal to moderate germ cell depletion and minimal to mild Leydig cell hypertrophy"},
      {"measurement": "test article-related changes in the thymus", "setting": "[5]", "value": "minimal to mild increased lymphocytes"},
      {"measurement": "test article-related findings in the mammary gland", "setting": "[5]", "value": "minimal to mild lobular and/or duct hyperplasia"},
      {"measurement": "microscopic findings at terminal necropsy", "setting": "[5]; 20 mg/kg", "value": "test article-related microscopic findings"},
      {"measurement": "albumin concentration", "setting": "[5]; 20 mg/kg/day", "value": "minimal decreases"},
      {"measurement": "microscopic findings at terminal necropsy", "setting": "[5]; 60 mg/kg", "value": "test article-related microscopic findings"},
      {"measurement": "mean corpuscular volume (MCV) and mean corpuscular hemoglobin (MCH)", "setting": "[5]; 200 mg/kg", "value": "minimal decreases"},
      {"measurement": "red cell distribution width (RDW)", "setting": "[5]; 200 mg/kg", "value": "minimal increase"},
      {"measurement": "highest non-severely toxic dose", "setting": "[5]; male, 13 weeks", "value": 60, "unit": "mg/kg/dose"}
    ]}
  ]
}
